Earlier results in US8357388B2, “Drug depot implant designs and methods of implantation” (Warsaw Orthopedic, Inc., priority 2006, dated 2013).

Tested on: PGE2 production
Settings: in cell culture

Compound: COc1ccc2cc(CC(=O)O)ccc2c1 [6-methoxy-2-napthylacetic acid]
- PGE2 production and local inflammation: suppress PGE2 production and local inflammation
